Experimental data: patent US6355784B1, “Methods and compositions for the manufacture of halogenated anthracyclines with increased antitumor activity, other anthracyclines, halogenated sugars, and glycosyl donors” (priority 1998, dated 2002)
In brackets after ≈: the same amount, converted by molar mass.

How the values were obtained:
[1] = test system: KBVI (MDR) cells; assay: MTT cytotoxicity assay, multi-drug-resistant KBV1 cells; conditions: for ID50 KBVI (MDR): multi-drug-resistant KBV1 cells overexpressing MDR1 (P-gp), MTT, 72 hours; for RI (resistance index) KBVI vs KB: ratio of ID50 in KB and KBVI cells
[2] = test system: MCF-7 cells; assay: MTT cytotoxicity assay, wild-type MCF-7 cells; conditions: for ID50 MCF-7: sensitive human breast carcinoma MCF-7 cells, MTT, 72 hours; for cytotoxicity in sensitive MCF-7 cells, in words: compared with DOX
[3] = test system: KB cells; assay: MTT cytotoxicity assay, sensitive KB cells; conditions: sensitive human carcinoma KB cells, 72 hours
[4] = test system: MCF-7/VP-16 (MRP) cells; conditions: for ID50 MCF-7/VP-16 (MRP): MRP-overexpressing MCF-7/VP-16 cells, MTT, 72 hours; for RI (resistance index) MCF-7/VP-16 vs MCF-7: ratio of ID50 in MCF-7 and MCF-7/VP-16 cells
[5] = test system: MCF-7/DOX (MDR) cells; assay: MTT cytotoxicity assay, MDR MCF-7/DOX cells; conditions: for ID50 MCF-7/DOX (MDR): MDR-overexpressing MCF-7/DOX cells, MTT, 72 hours; for RI (resistance index) MCF-7/DOX vs MCF-7: ratio of ID50 in MCF-7 and MCF-7/DOX cells
[6] = test system: prion disease; conditions: cited from earlier work
[7] = test system: amyloidosis; conditions: as a result of amyloid resorption; cited from earlier work
[8] = test system: amyloid fibrils; conditions: cited from earlier work
[9] = test system: amyloid enhancing factor; conditions: preincubation of the amyloid enhancing factor with IDOX; cited from earlier work

| Compound | ID50 KBVI (MDR) [1] | ID50 MCF-7 [2] | ID50 KB [3] | ID50 MCF-7/VP-16 (MRP) [4] | RI (resistance index) MCF-7/VP-16 vs MCF-7 [4] | ID50 MCF-7/DOX (MDR) [5] | other results |
| --- | --- | --- | --- | --- | --- | --- | --- |
| 6′-fluoro-doxorubicin [WP 743] | 41 µg/mL | 0.2 µg/mL | 0.64 µg/mL | 2.3 µg/mL | 11.5 | >10 µg/mL | RI (resistance index) KBVI vs KB [1]: 64; RI (resistance index) MCF-7/DOX vs MCF-7 [5]: 50 |
| COc1cccc2c1C(=O)c1c(O)c3c(c(O)c1C2=O)C[C@@](O)(C(=O)CO)C[C@@H]3O[C@H]1C[C@H](N)[C@H](O)[C@H](C)O1 [DOX, doxorubicin, reference compound] | >100 µg/mL | 0.38 µg/mL (≈ 0.699 µM) | 4.1 ± 0.3 µg/mL (≈ 7.54 µM) | 6.2 µg/mL (≈ 11.4 µM) | 16.3 | >100 µg/mL | cytotoxicity against MDR KB-V1 cells, in words [1]: inactive; RI fold higher than that of WP 715 and WP 722 ([5]; MCF-7/DOX cells): 180 fold; RI (resistance index) MCF-7/DOX vs MCF-7 [5]: >263 |
| COc1cccc2c1C(=O)c1c(O)c3c(c(O)c1C2=O)CC(O)(C(=O)CO)CC3OC1CC(N)C(I)C(C)O1 (centres unmarked) [IDOX, 4′-iodo-4′-deoxydoxorubicin] |  |  |  |  |  |  | onset of disease ([6]; Syrian-hamster prion model): delayed onset of the disease; survival time ([6]; Syrian-hamster prion model): prolonged; accumulation of amyloid fibrils in brain ([6]; neuropathological examination, versus untreated controls): delay in the accumulation of amyloid fibrils; clinical outcome in patients with amyloidosis [7]: substantial clinical improvement; binding to amyloid fibrils [8]: binds strongly; formation of amyloid deposits [9]: significantly reduces formation of amyloid deposits |
| COc1cccc2c1C(=O)c1c(O)c3c(c(O)c1C2=O)CC(O)(C(=O)CO)CC3OC1CC(O)C(F)C(C)O1 (centres unmarked) [WP 563, 3′-Deamino-4′-fluoro-3′-hydroxydoxorubicin] | 2.74 ± 2.9 µg/mL (≈ 5.01 µM) |  |  |  |  |  |  |
| COc1cccc2c1C(=O)c1c(O)c3c(c(O)c1C2=O)CC(O)(C(=O)CO)CC3OC1CC(O)C(F)(F)C(C)O1 (centres unmarked) [WP 600, 3′-deamino-4′-deoxy-4′,4′-difluoro-3′-hydroxy-doxorubicin] | 16.9 ± 2.3 µg/mL (≈ 29.9 µM) |  |  |  |  |  |  |
| COc1cccc2c1C(=O)c1c(O)c3c(c(O)c1C2=O)CC(O)(C(C)=O)CC3OC1CC(N)C(F)C(C)O1.Cl (centres unmarked) [WP 715, 4′-deoxy-4′-fluoro-daunorubicin hydrochloride] | 4.1 ± 0.6 µg/mL | 1.5 ± 1.4 µg/mL | 3.15 ± 0.9 µg/mL |  |  | 2.2 µg/mL | cytotoxicity in sensitive MCF-7 cells, in words [2]: less potent than DOX; cytotoxicity against resistant MCF-7/DOX cells, in words [5]: highly cytotoxic against resistant cells |
| COc1cccc2c1C(=O)c1c(O)c3c(c(O)c1C2=O)CC(O)(C(=O)CO)CC3OC1CC(N)C(F)C(C)O1 (centres unmarked) [WP 722, 4′-deoxy-4′-fluoro-doxorubicin] | 3.3 ± 0.4 µg/mL (≈ 6.05 µM) | 1.3 ± 1.6 µg/mL (≈ 2.38 µM) | 2.1 ± 2.5 µg/mL (≈ 3.85 µM) | 4.2 ± 5.0 µg/mL (≈ 7.7 µM) | 3.23 | 1.9 µg/mL (≈ 3.48 µM) | RI (resistance index) KBVI vs KB [1]: 1.57; cytotoxicity in sensitive MCF-7 cells, in words [2]: less potent than DOX; cytotoxicity in MCF-7/VP-16 cells, in words ([4]; compared with DOX): significant increase in cytotoxicity; cytotoxicity against resistant MCF-7/DOX cells, in words [5]: highly cytotoxic against resistant cells |
